The values that follow come from article PMC11383987 (bioRxiv, 2024).

Positions count from the first letter of the chain named. “And” between values parts separate entries of the source, which are not always exact repeats. Equal entries are not always repeated.

Broadly, the EC50 is the concentration at which the effect is half-maximal. Low readings indicate an effect from little substance, high ones a need for much substance.

Assay type in all cases: biochemical
The target of one assay is T1, PIN8 S55A (Arabidopsis thaliana, UniProt Q9LFP6, S55A).
T1 sequence (Q9LFP6 1-367 S55A): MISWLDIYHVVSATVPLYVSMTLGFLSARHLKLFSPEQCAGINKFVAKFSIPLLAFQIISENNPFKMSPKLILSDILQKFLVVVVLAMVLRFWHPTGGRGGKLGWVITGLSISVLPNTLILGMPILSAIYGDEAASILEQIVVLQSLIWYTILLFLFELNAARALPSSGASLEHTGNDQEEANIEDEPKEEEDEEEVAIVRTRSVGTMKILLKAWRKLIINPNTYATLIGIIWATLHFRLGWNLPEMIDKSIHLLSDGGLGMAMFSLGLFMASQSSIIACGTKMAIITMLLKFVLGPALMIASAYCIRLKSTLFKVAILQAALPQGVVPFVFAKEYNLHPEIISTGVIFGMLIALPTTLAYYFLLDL
Briefly: SSM electrophysiology peak current response, PIN8 S55A proteoliposomes. To be noted: for Imax: PIN8 S55A.

Another assay has as its target T2, PIN8 S55A/S146A (Arabidopsis thaliana, UniProt Q9LFP6, S146A/S55A).
T2 sequence (Q9LFP6 1-367 S55A/S146A): T1 sequence (Q9LFP6 1-367 S55A) with S146A
Briefly: SSM electrophysiology peak current response, PIN8 S55A/S146A proteoliposomes. To be noted: for Imax: PIN8 S55A/S146A.

Assay [1] has as its target T3, Arabidopsis thaliana PIN8 (Arabidopsis thaliana, UniProt Q9LFP6).
T3 sequence (Q9LFP6 1-367): T1 sequence (Q9LFP6 1-367 S55A) with A55S
Briefly: SSM electrophysiology peak current response, wild-type PIN8 proteoliposomes. To be noted: for EC50: EC50 of peak current response; for EC50 / Imax: WT PIN8, Michaelis-Menten fit; for peak width of SSM current response at various lipid-to-protein ratios (LPR): LPR10 vs LPR50, variation is consistent with transport.

For another assay, the target named is T4, PIN8 I51Y (Arabidopsis thaliana, UniProt Q9LFP6, I51Y).
T4 sequence (Q9LFP6 1-367 I51Y): T1 sequence (Q9LFP6 1-367 S55A) with I51Y, A55S
Briefly: SSM electrophysiology peak current response, PIN8 I51Y proteoliposomes. To be noted: for Imax: PIN8 I51Y.

The target in a further assay is T5, PIN8 S146A (Arabidopsis thaliana, UniProt Q9LFP6, S146A).
T5 sequence (Q9LFP6 1-367 S146A): T1 sequence (Q9LFP6 1-367 S55A) with A55S, S146A
Briefly: SSM electrophysiology peak current response, PIN8 S146A proteoliposomes. To be noted: for Imax: PIN8 S146A.

In another assay the target is T6, PIN8 Y150F (Arabidopsis thaliana, UniProt Q9LFP6, Y150F).
T6 sequence (Q9LFP6 1-367 Y150F): T1 sequence (Q9LFP6 1-367 S55A) with A55S, Y150F
Briefly: SSM electrophysiology peak current response, PIN8 Y150F proteoliposomes. To be noted: for Imax: PIN8 Y150F.

A further assay addresses T7, PIN8 N223A (Arabidopsis thaliana, UniProt Q9LFP6, N223A).
T7 sequence (Q9LFP6 1-367 N223A): T1 sequence (Q9LFP6 1-367 S55A) with A55S, N223A
Briefly: SSM electrophysiology peak current response, PIN8 N223A proteoliposomes. To be noted: for effect of N223A mutation on affinity/binding: PIN8 N223A vs WT.

Take `O=C(O)Cc1c[nH]c2ccccc12` [IAA, indole-3-acetic acid]: the EC50 on PIN8 S55A is 213 ± 58 µM; at PIN8 S55A/S146A, 341 ± 128 µM; in assay [1], 250 µM and 254 µM; at PIN8 I51Y, 547 ± 171 µM; at PIN8 S146A, 498 ± 191 µM; on PIN8 Y150F, 452 ± 32 µM. The Imax turned out to be 6 ± 1 nA on PIN8 S55A; 7 ± 2 nA at PIN8 S55A/S146A; 18 ± 3 nA in assay [1]; 2 ± 0.2 nA at PIN8 I51Y; 8 ± 2 nA at PIN8 S146A; 6 ± 2 nA on PIN8 Y150F. For the same compound, on PIN8 N223A (PIN8 N223A), the Imax worked out at 2 ± 0.8 nA. For the same compound, the “effect of S55A mutation on affinity” value on PIN8 S55A (PIN8 S55A vs WT) was “remains unchanged”. Also, the “effect of S55A/S146A double mutation on affinity” value at PIN8 S55A/S146A (PIN8 S55A/S146A vs WT) is on record as “no effect”. The “peak width of SSM current response at various lipid-to-protein ratios (LPR)” value in assay [1] is “vary with LPR”. Also, the “effect of N223A mutation on affinity/binding” value (“effect … on affinity/binding” for short) on PIN8 N223A is “reduces affinity for IAA only slightly”.
Consider `O=C(O)COc1ccc(Cl)cc1Cl` [2,4-D, 2,4-dichlorophenoxyacetic acid], for which the EC50 at PIN8 S55A was found to be 95 ± 36 µM; on PIN8 S55A/S146A it was 38 ± 6 µM; in assay [1], 179 ± 10 µM; at PIN8 I51Y, 641 ± 77 µM; at PIN8 S146A it was 164 ± 67 µM; on PIN8 Y150F it was 816 ± 275 µM. Further, the Imax worked out at 6 ± 0.6 nA at PIN8 S55A; 9 ± 2 nA on PIN8 S55A/S146A; 17 ± 2 nA in assay [1]; 3 ± 0.8 nA at PIN8 I51Y; 8 ± 0.9 nA on PIN8 S146A; 8 ± 2 nA on PIN8 Y150F. Also, the “peak width of SSM current response at various lipid-to-protein ratios (LPR)” value in assay [1] is “vary with LPR”. At PIN8 N223A, the “effect … on affinity/binding” value was “completely abolishes binding”.
With `O=C(O)COc1ccc(Cl)cc1` [4-CPA, 4-chlorophenoxyacetic acid], the EC50 on PIN8 S55A is 328 ± 15 µM; at PIN8 S55A/S146A, 81 ± 3 µM; in assay [1] it was 800 ± 200 µM; at PIN8 I51Y, 1040 ± 252 µM; on PIN8 S146A it was 369 ± 27 µM; on PIN8 Y150F, 710 ± 228 µM. Also, the Imax on PIN8 S55A stood at 11 ± 1 nA; on PIN8 S55A/S146A, 11 ± 0.9 nA; in assay [1], 12 ± 2 nA; at PIN8 I51Y, 3 ± 0.8 nA; at PIN8 S146A, 8 ± 2 nA; on PIN8 Y150F, 5 ± 0.9 nA. In assay [1], the “peak width of SSM current response at various lipid-to-protein ratios (LPR)” value is “vary with LPR”. Also, on PIN8 N223A, the “effect … on affinity/binding” value was “completely abolishes binding”.
